Test results from the NIST ThermoML archive (doi:10.1021/je3000876).

What was measured:
[1] = for viscosity / mass density: 101.33 kPa, Liquid; for viscosity: Cone and plate viscometry; for mass density: Vibrating tube method
[2] = refractive index (Na D-line) (dimensionless); conditions: 101.33 kPa, Liquid, Standard Abbe refractometry

NC(=O)Cn1cc[n+](CCCCn2cc[n+](CC(N)=O)c2)c1.O=S(=O)([N-]S(=O)(=O)C(F)(F)F)C(F)(F)F.O=S(=O)([N-]S(=O)(=O)C(F)(F)F)C(F)(F)F
Conditions	mass density, [1] [kg/m3]	refractive index, [2]	viscosity, [1] [mPa·s]
298.15 K	1590.17	1.4546	8689
303.15 K	1585.41	1.4532	4730
308.15 K	1580.62	1.4518	3285
313.15 K	1575.98	1.4504	2365
318.15 K	1572.04	1.4491	1824
323.15 K	1567.22	1.4477	1517
328.15 K	1562.31	1.4464	1323
333.15 K	1557.66	1.4451	1221
338.15 K	1552.61	1.4439	1129
343.15 K	1548.03	1.443	1098

Conditions	Glass transition temperature [°C]
[1], Glass, DTA	-40
